Experimental data from patent publication US12259378B2, “Dynamic clamps and methods of use thereof” (priority 2018, dated 2025).
Entries after “also recorded” stand apart in the source; their conditions may differ. Where two headings read alike, the source gives them in different places.

Columns and labels:
[1] = tested on: patients with R1882Q mutation; conditions: human, in vivo
Description: (§1) All patients, or their parents or legal guardian in the case of minors or individuals with intellectual disability, gave written informed consent. The study was approved by the Human Research Ethics Committee of Austin Health, Melbourne.
(§2) Clinical data was collated from the literature for previously reported individuals (N=14), with updated clinical information obtained in one patient. Individuals whose clinical data was not previously published (N=5), had their mutations identified through clinical testing. Detailed phone or clinical interviews with these parents were undertaken by paediatric epileptologists (KBH, MRC), home videos were reviewed and medical records from the treating neurologist obtained.

[2] = tested on: patients with R853Q mutation; conditions: human, in vivo
Description: as §1, §2

[3] = tested on: patients with R853Q mutation; conditions: human, in vivo; cited from earlier work
[4] = tested on: patients with R1882Q mutation; conditions: human, in vivo; cited from earlier work
human Nav 1.2 channel = human Nav 1.2 channel (Homo sapiens, UniProt Q99250, R1882Q)
human Nav 1.2 channel, sequence (Q99250 whole entry R1882Q, looked up): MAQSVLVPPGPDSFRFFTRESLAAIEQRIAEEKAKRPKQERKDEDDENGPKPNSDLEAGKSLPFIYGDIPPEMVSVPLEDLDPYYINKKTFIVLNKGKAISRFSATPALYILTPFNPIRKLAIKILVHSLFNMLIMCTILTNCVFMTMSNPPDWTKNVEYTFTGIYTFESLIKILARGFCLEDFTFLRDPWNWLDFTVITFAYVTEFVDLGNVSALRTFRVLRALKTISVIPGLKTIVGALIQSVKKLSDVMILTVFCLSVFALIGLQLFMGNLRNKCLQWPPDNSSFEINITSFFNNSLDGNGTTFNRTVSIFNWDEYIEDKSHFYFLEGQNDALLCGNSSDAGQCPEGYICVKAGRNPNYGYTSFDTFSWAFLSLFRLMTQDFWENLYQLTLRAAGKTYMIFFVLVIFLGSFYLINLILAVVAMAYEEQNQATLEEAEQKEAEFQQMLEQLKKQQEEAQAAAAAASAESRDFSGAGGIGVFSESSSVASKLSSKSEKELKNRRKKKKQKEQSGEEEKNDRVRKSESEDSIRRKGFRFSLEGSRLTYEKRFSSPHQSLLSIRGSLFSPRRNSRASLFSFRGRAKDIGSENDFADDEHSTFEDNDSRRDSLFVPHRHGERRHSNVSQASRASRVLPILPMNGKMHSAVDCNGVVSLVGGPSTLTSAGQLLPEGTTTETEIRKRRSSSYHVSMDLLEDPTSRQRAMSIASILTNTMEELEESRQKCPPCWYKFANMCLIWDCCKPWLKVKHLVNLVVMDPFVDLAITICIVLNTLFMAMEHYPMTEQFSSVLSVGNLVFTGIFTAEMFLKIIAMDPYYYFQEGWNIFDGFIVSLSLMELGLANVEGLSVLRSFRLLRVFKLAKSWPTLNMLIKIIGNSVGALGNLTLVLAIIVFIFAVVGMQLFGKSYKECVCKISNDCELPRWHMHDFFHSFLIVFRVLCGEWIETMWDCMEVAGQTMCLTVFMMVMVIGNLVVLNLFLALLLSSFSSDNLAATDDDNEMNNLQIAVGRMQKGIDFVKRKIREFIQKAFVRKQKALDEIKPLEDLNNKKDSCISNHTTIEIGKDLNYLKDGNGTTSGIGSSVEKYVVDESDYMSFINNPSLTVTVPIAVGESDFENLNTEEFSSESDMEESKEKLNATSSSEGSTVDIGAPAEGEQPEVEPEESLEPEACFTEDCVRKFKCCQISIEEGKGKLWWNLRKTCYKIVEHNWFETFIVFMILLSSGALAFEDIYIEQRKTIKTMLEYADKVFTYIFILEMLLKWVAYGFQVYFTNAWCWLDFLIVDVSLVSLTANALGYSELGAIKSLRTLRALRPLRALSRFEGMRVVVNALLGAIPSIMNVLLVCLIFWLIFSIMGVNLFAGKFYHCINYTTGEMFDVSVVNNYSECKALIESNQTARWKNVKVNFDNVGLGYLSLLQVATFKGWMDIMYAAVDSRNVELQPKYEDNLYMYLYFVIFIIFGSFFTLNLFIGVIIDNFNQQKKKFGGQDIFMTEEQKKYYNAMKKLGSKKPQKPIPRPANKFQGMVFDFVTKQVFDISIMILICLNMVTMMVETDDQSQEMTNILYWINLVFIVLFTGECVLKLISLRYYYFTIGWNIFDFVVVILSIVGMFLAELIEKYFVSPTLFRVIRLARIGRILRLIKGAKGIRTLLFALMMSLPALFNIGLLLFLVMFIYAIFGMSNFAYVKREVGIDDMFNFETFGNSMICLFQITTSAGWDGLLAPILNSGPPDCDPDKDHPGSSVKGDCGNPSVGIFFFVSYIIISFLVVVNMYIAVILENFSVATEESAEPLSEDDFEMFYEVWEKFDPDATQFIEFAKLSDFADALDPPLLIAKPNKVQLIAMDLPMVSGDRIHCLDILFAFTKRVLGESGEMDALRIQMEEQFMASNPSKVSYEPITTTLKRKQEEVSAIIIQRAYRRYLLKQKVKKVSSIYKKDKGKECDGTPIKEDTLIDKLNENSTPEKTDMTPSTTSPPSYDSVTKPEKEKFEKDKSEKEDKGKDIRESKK

C=C(C)[C@@H]1CCC(C)=C[C@H]1c1c(O)cc(CCCCC)cc1O [CBD, cannabidiol]
Other AED response [1]: Benefit

NC(=O)N1c2ccccc2C=Cc2ccccc21 [CBZ, carbamazepine]
Other sodium channel blocker response [2]: benefit
Seizure control, summary over patients [1]: Seizures were improved

CN1C(=O)CC(=O)N(c2ccccc2)c2cc(Cl)ccc21 [CLB, clobazam]
Other AED response [3]: Benefit

Nc1nnc(-c2cccc(Cl)c2Cl)c(N)n1 [LTG, lamotrigine]
Other sodium channel blocker response [4]: no effect

NC(=O)N1c2ccccc2CC(=O)c2ccccc21 [OXC, oxcarbazepine]
Other sodium channel blocker response [4]: no effect
Other sodium channel blocker response [2]: seizure control remained good

O=C1NC(=O)C(c2ccccc2)(c2ccccc2)N1 [PHT, phenytoin]
PHT response [4]: No effect
PHT response [3]: No effect
PHT response [2]: No effect
Adverse effect with phenytoin loads (movement disorder) [1]: ‘continuous thrashing’
PHT response [1]: Benefit
Seizure control, summary over patients [1]: some showed marked improvement; also recorded: improved seizure control in two and no definite effect on seizures in three; also recorded: some patients with R1882Q mutations become seizure free; also recorded: not universal

CCCCCc1cc(O)c2c(c1)OC(C)(C)[C@@H]1CCC(C)=C[C@@H]21 [THC, tetrahydrocannabinol]
Other AED response [2]: Benefit

CC1(C)O[C@@H]2[C@@H](CO[C@@]3(COS(N)(=O)=O)OC(C)(C)O[C@@H]23)O1 [TPM, topiramate]
Other AED response [3]: Benefit

C=CC(N)CCC(=O)O (stereo not shown) [VGB, vigabatrin]
Other AED response [3]: Benefit
Seizure control, summary over patients [2]: beneficial in one and exacerbated seizures in three

CCCC(CCC)C(=O)O [VPA, valproic acid]
Other AED response [3]: Benefit
Other AED response [1]: Benefit

CC1OC(C)OC(C)O1 (stereo not shown) [paraldehyde]
Other AED response [2]: Benefit

NC1=N[C@H](O)[C@H]2[C@H]3O[C@]4(O)O[C@@H]([C@@H](O)[C@@]2(N1)[C@@H]4O)[C@]3(O)CO [tetrodotoxin]
Sensitivity of persistent INa to tetrodotoxin (human Nav 1.2 channel): sensitive

CCCCCCC(=O)OCC(COC(=O)CCCCCC)OC(=O)CCCCCC [triheptanoin]
Improvement of movement disorder [2]: Improvement
Other AED response [2]: Benefit
Other AED response [1]: Benefit

L-Dopa/Carbidopa
Improvement of movement disorder [2]: Improvement

adrenocorticotropic hormone (SYSMEHFRWGKPVGKKRRPVKVYPNGAEDESAEAFPLEF; Corticotropin; UniProt P01189 138-176, looked up) [ACTH]
Other AED response [3]: Benefit
Other AED response [2]: Benefit
Seizure control, summary over patients [2]: beneficial in four patients
